Experimental data: US20250011778A1, “APP iRNA Compositions and Methods of Use Thereof for Treating or Preventing Diseases Characterized by Enlarged Endosomes” (ALNYLAM PHARMACEUTICALS, INC., priority 2021, published 2025)
“Also recorded” adds a separate entry of the source.

Assays:
Format in all cases: in vivo
IBA1 = assay: CVN mouse study, inflammation (IBA1 IHC and Iba1 qPCR)
Source text: (§1) Male and female CVN mice were bred at CRL Germany and genotyped, housed, dosed and analyzed (IHC, ^1H-MRS and open field test) at CRL Finland, as previously reported, under regular temperature, humidity and light/dark cycle conditions (Wilcock et al. J. Neurosci. 28: 1537-1545; Colton et al. J. Neuropathol. Exp. Neurol. 73: 752-769; Kohonen et al. Nat. Commun. 8: 15932). Homozygous Tg-hAPP^SwDI/mNos2^−/− (CVN) mice were produced by crossing mice expressing the vasculotropic Swedish K670N/M671L, Dutch E693Q and Iowa D694N human APP mutations under control of the Thy-1 promoter (Davis et al. J. Biol. Chem. 279: 20296-20306) with mNos2^−/− (B6 129PNos2 tau1Lau/J) mice (Laubach et al. Am. J. Physiol. 275: H2211-H2218). The study was divided into two phases. In the first phase, 15 CVN mice were dosed by ICV at 3 months of age, with terminal tissue sampling at 6 months of age and 9 months of age. In the second phase, 40 CVN mice and 20 WT mice were divided into three experimental groups, with terminal tissue sampling at 9 months of age and 12 months of age. […] Mice were placed in the center of the chamber, and their behaviors were recorded for 30 minutes. The following parameters were recorded and analyzed: distance traveled, number of vertical rearings and average velocity. […]

APP mRNA = assay: CVN mouse study, APP mRNA knockdown after ICV dose
Source text: Male and female CVN mice were bred at CRL Germany and genotyped, housed, dosed and analyzed (IHC, ^1H-MRS and open field test) at CRL Finland, as previously reported, under regular temperature, humidity and light/dark cycle conditions (Wilcock et al. J. Neurosci. 28: 1537-1545; Colton et al. J. Neuropathol. Exp. Neurol. 73: 752-769; Kohonen et al. Nat. Commun. 8: 15932). Homozygous Tg-hAPP^SwDI/mNos2^−/− (CVN) mice were produced by crossing mice expressing the vasculotropic Swedish K670N/M671L, Dutch E693Q and Iowa D694N human APP mutations under control of the Thy-1 promoter (Davis et al. J. Biol. Chem. 279: 20296-20306) with mNos2^−/− (B6 129PNos2 tau1Lau/J) mice (Laubach et al. Am. J. Physiol. 275: H2211-H2218). The study was divided into two phases. In the first phase, 15 CVN mice were dosed by ICV at 3 months of age, with terminal tissue sampling at 6 months of age and 9 months of age. In the second phase, 40 CVN mice and 20 WT mice were divided into three experimental groups, with terminal tissue sampling at 9 months of age and 12 months of age. Metabolic analyses using ^1H-MRS were at 12 months of age, respectively, as previously described (Colton et al. J. Neuropathol. Exp. Neurol. 73: 752-769). Open field test measurements were performed at approximately 9 months of age. Activity chambers (Med Associates, 27×27×20.3 cm) were equipped with infrared beams. Mice were placed in the center of the chamber, and their behaviors were recorded for 30 minutes. The following parameters were recorded and analyzed: distance traveled, number of vertical rearings and average velocity. IHC was performed as described (Wilcock et al. J. Neurosci. 28: 1537-1545; Kan et al. J Neurosci. 35: 5969-5982) using anti-amyloid-beta antibody WO2 (Sigma-Aldrich, MABN10, lot 3557956, 1:500) and anti-IBA1 antibody (Wako Pure Chemicals, 01-1941, lot LEP3218, 1:200). All data are presented as mean±standard deviation or standard error of the mean, and differences were statistically significant at the P<0.05 level. Statistical analyses were performed using the PRISM statistical program (GraphPad Software).
ICV administration was performed using stereotaxically guided Hamilton syringe and infusion system (Harvard Apparatus). A single 5-μl unilateral injection was performed in the right lateral ventricle at the following coordinates: AP=−0.5 mm (posterior from bregma), ML=+1.0 mm and DV=−1.75 mm, using standard aseptic surgical procedures. After midline skin incision on the scalp, a burr hole was generated at selected coordinates using stereotaxic coordinates and a dental drill. Thereafter, a small puncture in the dura was made at the epicenter of the burr hole, and the needle was lowered to specified depth to reach the lateral ventricle. A Hamilton syringe with a 28-gauge blunt needle was filled with a volume slightly greater than 5 μl. Administration volume of the test articles was at 5 μl and infusion rate at 1 μl min^−1 (over 5 minutes). After the infusion, the needle was left in place for a stabilization period of 5 minutes before withdrawal from the ventricle. Withdrawal was performed slowly and paused for 30 seconds when the needle tip was at the cortical area. […]

sAPPα protein = assay: CVN mouse study, sAPPα protein after ICV dose; conditions: single 60 μg ICV, CSF
Source text: as §1

[1] = test system: glutamate (Glu) and N-acetylaspartate (NAA); assay: CVN mouse study, metabolites by 1H-MRS; conditions: 1H-MRS at 12 months of age (6 months post-dose)
Source text: as §1

CVN mice = assay: CVN mouse study, open field test; conditions: vs WT
Source text: as §1

AB40 deposits = assay: CVN mouse study, Aβ40 (AB40) deposits by IHC; conditions: 6 months after dose, dosed pre-symptomatically, not significant (n=2-4)
Source text: as §1

For “AD-454972: APP-targeting C16-siRNA; sense usasuga(Ahd)GfuUfCfAfucaucaaasasa, antisense VPusUfsuuug(Agn)ugaugaAfcUfucauasusc; SEQ 1435/1440 (sense UAUGAAGUUCAUCAUCAAAAA; antisense UUUUUGAUGAUGAACUUCAUAUC; C16 conjugate, chemical modifications, chemistry not fully specified)”, which “reduction of Iba1 mRNA expression” value (IBA1; after 6 months) is on record?
Its value is 20-30%.

And the “IBA1 IHC intensity” value (IBA1; cortex and hippocampus, rate of increase over time)?
The value was “significantly slower rate of increase”.

What about the “reduction of APP mRNA in the cortex” value (APP mRNA; after 3 months) of the same substance?
Its value is “approximately 25%”.

What about the “reduction of APP mRNA” value (APP mRNA; single 60 μg ICV, ventral cortex (VC)) of the same substance?
Its value is 50%.

What about the “reduction of APP mRNA” value (APP mRNA; single 120 μg ICV, 30 days post-dose, VC) of the same substance?
The value was roughly 75%.

And the “reduction of APP mRNA” value (APP mRNA; single 120 μg ICV, 60 days post-dose, VC)?
Its value is greater than 50%.

And the “APP mRNA level” value (APP mRNA; single 120 μg ICV, 90 days, VC)?
The value was “normalizing”.

What about the “reduction of sAPPα protein” value (sAPPα protein) of the same substance?
The value was 50%.

And the “N-acetylaspartate (NAA) levels” value [1]?
The value was “little effect”.

What about the “glutamate (Glu) levels” value ([1]; vs WT) of the same substance?
The value was “normalization; also recorded: normalized”.

And the rearing frequency (CVN mice)?
Its rearing frequency is “normalization; also recorded: normalized”.

And the total distance traveled (CVN mice)?
Its total distance traveled is “normalization; also recorded: normalized”.

And the “reduction of AB40 deposits” value (AB40 deposits)?
The value was “approximately 50%”.
